In US20100112012A1, “MODULATION OF IMMUNE RESPONSES” (CLEVELAND CLINIC FOUNDATION, priority 2005, published 2010):
Entries after “also recorded” stand apart in the source; their conditions may differ.

Assays:
NF-κB [1] = assay: NF-κB-dependent reporter in H1299-NF-kBLuc cells; assay type: cell-based, human; details: TNF 10 ng/ml
Description: Transient transfections. 2×10^5 cells were plated into 6-well plates and, after overnight incubation, transfected with Lipofectamin Plus reagent (Gibco BRL) with 0.5 μg of reporter plasmids (p21-ConALuc or pNF-κBLuc) in combination with different concentrations of plasmids expressing p53, Arf, Ss-IκB, or siHDM2. Corresponding empty vectors were added in all transfections up to 2 μg of total DNA. Normalization of transfection efficiency was done by adding 0.2 μg of pCMV-LacZ plasmid. Luciferase activity and β-galactosidase activity were measured in lysates prepared 48 hours after transfection with Cell Lysis Buffer (Promega) by the luciferase assay system (Promega) or β-galactosidase enzyme system (Promega). Luminometric and colorimetric reactions were read on the Wallack 1420 plate reader (Perkin Elmer). Stable transduction of reporters. 2×10^4 cells with integrated reporter were plated in 96-well plates. After overnight incubation, chemicals or media from lentivirus-producing cells were added. At different times, cell lysates were prepared using Reporter Lysis Buffer (Promega). Luciferase or β-galactosidase activity and protein concentration were measured in aliquots of cell lysates using standard kits (Promega, Luciferase and β-galactosidase assay systems, Biorad Protein Assay Kit).

p53 = p53 reporter in organ cultures of human RCC tumor samples; assay type: cell-based; details: 12 hours
Description: FIG. 11. QC can activate p53 transactivation in organ cultures of human RCC tumor samples. Fresh surgically removed samples of tumor and adjacent normal kidney were cut into small pieces and put into media containing ConALacZ virus (5×10^7 TU/ml) with […] of polybrene for 4 hours. 24 hours after infection, tissue pieces (at least three per treatment) were incubated with media containing quinacrine or doxorubicin for 12 hours. Then the tissues were fixed for 30 min in PBS containing 0.5% glutaraldehyde and 1 mM MgCl2. Pieces of tumor were stained in PBS solution containing X-gal (1 mM MgCl2, 3.3 mM K4Fe(CN)6, 3.3 mM K3Fe(CN)6, 0.02% NP40, 0.2% X-gal) overnight at 37° C. Stained specimens were analyzed microscopically by squeezing pieces of tumor and normal tissues between two glass slides.

IκBα = IκBα level (Western analysis); assay type: cell-based, human; details: TNF 10 ng/ml, 9AA 10 μM
Description: Cells were lysed in RIPA buffer (25 mM Tris HCl, pH 7.2, 125 mM NaCl, 1% NP40, 1% sodium deoxycholate, 1 mM EDTA) containing 1 mM PMSF (Sigma), 10 ug/ml of aprotinin (Sigma) and 10 ug/ml of leupeptin (Sigma). Protein concentrations were determined with the BioRad Dc protein assay kit. Equal protein amounts were run on gradient 4-20% precast gels (Novex) and blotted onto PVDF membranes (Amersham). The following antibodies were used: anti-p53—monoclonal mouse DO1 (Santa-Cruz), anti-p21—monoclonal mouse F-5 (Santa-Cruz), anti-mdm2—monoclonal mouse SMP14 (Santa-Cruz), anti-p65—(C20, Santa Cruz), anti-phospho-p65—(ser536, Cell Signaling), anti-IκBa—(C21, Santa Cruz), anti-p50—(NLS, Santa Cruz), anti-IKK1 (Cell Signaling), anti-γH2X (Cell Signaling), anti-actin (Santa Cruz). p53 phosphorylation status was analyzed using the phospho-p53 sampler kit from Cell Signaling according to the manufacturer's recommendations. HRP-conjugated secondary antibodies were purchased from Santa Cruz. Quantitation of the data was performed using Quantity One software from BioRad.

RCC cell lines = assay: Growth inhibition assay, RCC, non-RCC and normal kidney (NKE) cells; assay type: cell-based, human; details: 6 RCC and 6 non-RCC cell lines, growth inhibition assay
Description: Growth inhibition assay. […] Cell survival was estimated after an additional 48 hours, using standard Methylene Blue staining followed by extraction and colorimetrical detection of the dye.

[2] = test system: proinflammatory cytokines in the skin; assay: IL-1β, TNFα, CCL21 and IκBα expression in sensitized skin (RT-PCR, ELISA); assay type: in vivo, BALB/c mice; details: quinacrine on days −2 plus −1, 0.25% DNFB
Description: Naive and sensitized mouse skin (˜200 mg) was snap frozen in liquid nitrogen and then ground using a mortar and pestle in liquid nitrogen. Total RNA was extracted using the RNeasy Tissue Kit (Qiagen, Inc., Valencia, Calif.) according to the manufacturer's protocol. For synthesis of cDNA, 2 mg of total RNA from each sample was resuspended in 10 ml of the reaction buffer. cDNA synthesis was performed using M-MLV reverse transcriptase (Promega Corporation, Madison, Wis.) with random primers according to the manufacturer's protocol. The reaction was stopped by denaturing the enzyme at 99° C. for 5 min. and the mixture was diluted with distilled water to a final volume of 50 ml. Aliquots (3 ml) of the synthesized cDNA were added to 47 ml of PCR mixture, containing 1×PCR buffer, MgCl2 (1.5 mM), dNTP (0.2 mM each), primer mix (0.5 mM each) and 2.0 units of Taq DNA polymerase (all from Invitrogen Corp., Carlsbad, Calif.). PCR primers for mouse GAPDH, IκBα, TNF-α, IL-1β and CCL21 were purchased from Integrated DNA Technologies, Inc. (Coralville, Iowa) and contained the following sequences:
Amplification was initiated by 1 min of denaturation at 95° C. for 1 cycle. […] For each set of primers, dilutions of cDNA were amplified for 20-40 cycles to define optimal conditions for linearity and to permit semi-quantitative analysis of signal strength. […]

NF-κB [3] = assay: Electromobility shift assay and immunofluorescent staining of nuclear NF-κB; assay type: cell-based, human; details: TNF 10 ng/ml, 10 μM
Text: All washings were done with blocking solution.

## CCN(CC)CCCC(C)Nc1c2ccc(Cl)cc2nc2ccc(OC)cc12 (centres unmarked) [QC, quinacrine]
NF-κB [1]; H1299-NF-kB-Luc cells
  basal and TNF-induced NF-κB reporter activities: strong dose-dependent suppression; also recorded: capable of inhibiting both basal and TNF-induced activities of NF-κB
NF-κB [1]; H1299-NF-κBLuc cells
  timing of addition relative to TNF needed to inhibit NF-κB: can inhibit NF-κB when added before, simultaneously with or after TNF stimulation
p53; organ cultures of adjacent normal kidney
  p53-responsive reporter induction in normal kidney samples: no reporter induction
p53; organ cultures of human RCC
  expression of a p53-responsive reporter in tumor samples: can be also detected in short-term organ cultures; also recorded: induced expression of a p53-responsive reporter in tumor samples
IκBα
  TNF-stimulated induction of IκBα: blocked
RCC cell lines
  IC50 in RCC cells compared with non-RCC cells: in the same range as for non-RCC cells
[2]
  antigen-induced mRNA expression and protein production of proinflammatory cytokines in the skin: decreases antigen-induced mRNA expression and protein production of proinflammatory cytokines in the skin
NF-κB [3]
  nuclear accumulation and retention of NF-κB (p65) complexes: greatly prolonged the time of its presence in nuclei
